{"source": "patent US20100204295A1", "about": "“TREATMENT OF ALLERGIC DISEASE WITH IMMUNOMODULATOR COMPOUNDS” (SCICLONE PHARMACEUTICALS, INC., priority 2007, published 2010)", "key": {"[1]": {"tested_on": "experimental allergic asthma (BAL cells)", "experiment": "Cytological composition of bronchoalveolar lavage in allergic ovalbumin asthma model", "assay_type": "in vivo, mice of the Balb/C line", "conditions": "for Total cellularity of the BAL: animals 6-8 weeks, mean±SD; for Eosinophils, % of BAL cells / Lymphocytes, % of BAL cells / Monocytes/Macrophages, % of BAL cells / Neutrophils, % of BAL cells: animals 6 to 8 weeks; for Eosinophils in BAL, thousand / Lymphocytes in BAL, thousand / Monocytes/Macrophages in BAL, thousand / Neutrophils in BAL, thousand / Total number of cells in the lavages: animals 18 to 20 weeks", "source_text": "Female, non-pathogenic mice of the Balb/C line (“Pushchtino” laboratory animal breeders) were kept under conditions of an SPF-vivarium at a constant temperature, 12-hour day/night cycle, and received sterile feed and water ad libitum. In two series of experiments, mice from 6-8 weeks and 18-20 weeks of age were used at the beginning of the experiment, respectively.\nThe animals were immunized twice at 5-day intervals with an ovalbumin solution (Sigma) in an adjuvant based on ammonium sulfate at a dosage of 8 μg per mouse. SCV-07 was administered intra-abdominally in a volume of 200 μL at a dosage of 0.1 or 1.0 μg/kg in PBS once a day from 6 through 11 days after the first immunization. The control group received physiological saline on the same days. Each group comprised 6 to 10 animals. On the 12th, 16th and 20th days after the first immunization, the animals were then placed in a hermetic box, in which an aerosol of 1% ovalbumin solution (OvA) in PBS was generated with an ultrasonic nebulizer LD-207U (Little Doctor) for 1 minute with continuous mixing of air. The duration of exposure of the animals to the aerosol was 15 minutes. Analysis of the severity of experimental allergic asthma was carried out 24 hours after the last aerosol exposure.\nThe mice were killed by intra-abdominal administration of a lethal dose of sodium barbital. Bronchoalveolar lavage (BAL) was obtained by washing the lungs through the trachea with 1 mL PBS solution. The BAL cells were precipitated by centrifuging, the precipitate was resuspended, the cell concentration was counted in a Goryaev chamber, and smears were prepared. The smears were dried, fixed and stained with Romanovskii dye. The cytological composition of the bronchoalveolar lavage was investigated under a light microscope with oil immersion (eyepiece×16, objective×100). The numbers of monocyte/macrophages, neutrophils, eosinophils and lymphocytes per 200 cells were counted, in which no less than 5 visual fields were viewed. The relative number of cells of each cell population was expressed as the percentage of the total number of cells.\nThe statistical processing of the results was carried out with the Microsoft Excel and SPSS programs for Windows v.13. The normality of the distribution was determined with the Kholmogorov-Smimov criterion. To evaluate the significance of the differences between groups for normally distributed values, we used the two-sided Student test with unequal deviations, for non-normally distributed differences—the Mann-Whitney test. The differences were considered significant at p<0.05. Unless otherwise stated, the data are presented in the form of means±standard deviation."}, "[2]": {"tested_on": "BAL cells", "experiment": "BAL white blood cells and differentials, guinea pig model", "assay_type": "in vivo, Dunkin-Hartley guinea pigs", "protocol": "Animals were sensitized on day 0 ip with 50 mg/kg OVA. On Days 17, 18, 19, and 20, animals received an ip injection between 8 and 10 am with PBS, SCV-07 at 1 ug/kg, or SCV-07 at 10 ug/kg (Peptide treatment). Between 8 and 10 a.m. on Day 21, animals were administered peptide 2 hours before OVA or saline (NSS) aerosol challenge. 30 min before OVA or NSS aerosol challenge each animal was injected ip with an antihistamine (6.1 mg/kg pyrilamine maleate) to prevent death due to the anaphylactic response that accompanies aerosol OVA challenge. Animals were exposed to aerosol in pairs with either 1% OVA solution or NSS for 5 min in a plexiglass chamber (22×22×29 cm) using a DeVilbiss Model 35B Ultrasonic Nebulizer. Animals were observed during the total 5 min aerosolization and comments recorded. Within 22-24 hours after challenge, animals were euthanized, bled by cardiac puncture, lavaged and lung lobes removed for measurement of cellular infiltration. At the time of OVA or NSS challenge and euthanasia, animal weights ranged from approximately 350-550 g, with the average weight approximately 420 g. This experimental protocol is similar to that used in previously published studies (Regal and Fraser, 1996; Regal et al., 2000). Animals were euthanized with pentobarbital (100-200 mg/kg), bled by cardiac puncture, and lavaged with room temperature PBS. For bronchoalveolar lavage (BAL), the trachea was cannulated and 4 volumes of PBS were introduced into the tracheal cannula and gently withdrawn. Total lavage volume was 60 ml/kg. The BAL was centrifuged to sediment the cells, and the BAL cell pellet re-suspended in 1.0 ml PBS for determination of the total number of white blood cells (WBC) recovered in the BAL of each animal. The BAL supernatant was frozen at −70 C for determination of total protein recovered in the BAL supernatant using the method of Lowry et al. (1951). Total white blood cells in BAL were counted by standard methods in a hemacytometer using Turk's solution. Differential counts were obtained from cytospin preparations of BAL cells (3×10^4 cells) stained with a modified Wrights' stain (Diff Quik, American Scientific Products, McGraw Park, Ill.). Four hundred cells were counted and identified as eosinophils, neutrophils, or mononuclear cells. […] EPO activity from the homogenized lung after lavage was expressed as total OD/min from the left caudal lobe. MPO activity from the homogenized lung after lavage was expressed as total units of enzyme activity from the right caudal lobe. […] OD412 of the BAL supernatant was also determined to estimate the number of RBCS that were lysed during the lavage procedure and prior to re-suspension of the cells for counting. […]"}, "[3]": {"tested_on": "immunization with sheep red blood cells", "conditions": "in vivo; cited from earlier work"}}, "data": [{"compound": "N[C@H](CCC(=O)N[C@@H](Cc1c[nH]c2ccccc12)C(=O)O)C(=O)O", "note": "[SCV-07, γ-D-glutamyl-L-tryptophan]", "values": [{"measurement": "Total cellularity of the BAL", "setting": "[1]; SCV-07 0.1 μg/kg intra-abdominally", "result": "1.96±0.99", "unit": "million"}, {"measurement": "Total cellularity of the BAL", "setting": "[1]; SCV-07 1 μg/kg", "result": "2.21±1.16", "unit": "million"}, {"measurement": "Eosinophils, % of BAL cells", "setting": "[1]; 0.1 μg/kg", "result": "57.4 ± 21.3", "unit": "%"}, {"measurement": "Lymphocytes, % of BAL cells", "setting": "[1]; 0.1 μg/kg", "result": "0.4 ± 0.5", "unit": "%"}, {"measurement": "Monocytes/Macrophages, % of BAL cells", "setting": "[1]; 0.1 μg/kg", "result": "41.2 ± 20.7", "unit": "%"}, {"measurement": "Neutrophils, % of BAL cells", "setting": "[1]; 0.1 μg/kg", "result": "0.9 ± 0.8", "unit": "%"}, {"measurement": "Eosinophils, % of BAL cells", "setting": "[1]; 1 μg/kg", "result": "56.7 ± 9.5", "unit": "%"}, {"measurement": "Lymphocytes, % of BAL cells", "setting": "[1]; 1 μg/kg", "result": "0.6 ± 0.7", "unit": "%"}, {"measurement": "Monocytes/Macrophages, % of BAL cells", "setting": "[1]; 1 μg/kg", "result": "40.6 ± 9.4", "unit": "%"}, {"measurement": "Neutrophils, % of BAL cells", "setting": "[1]; 1 μg/kg", "result": "2.1 ± 0.9", "unit": "%"}, {"measurement": "Eosinophils in BAL, thousand", "setting": "[1]; 0.1 μg/kg", "result": "456 ± 144", "unit": "thousand"}, {"measurement": "Lymphocytes in BAL, thousand", "setting": "[1]; 0.1 μg/kg", "result": "22 ± 11", "unit": "thousand"}, {"measurement": "Monocytes/Macrophages in BAL, thousand", "setting": "[1]; 0.1 μg/kg", "result": "629 ± 134", "unit": "thousand"}, {"measurement": "Neutrophils in BAL, thousand", "setting": "[1]; 0.1 μg/kg", "result": "17 ± 14", "unit": "thousand"}, {"measurement": "Total number of cells in the lavages", "setting": "[1]; 0.1 μg/kg, p<0.05 vs control", "result": "1.12±0.15", "unit": "million"}, {"measurement": "Eosinophils in BAL, thousand", "setting": "[1]; 1 μg/kg", "result": "690 ± 247", "unit": "thousand"}, {"measurement": "Lymphocytes in BAL, thousand", "setting": "[1]; 1 μg/kg", "result": "26 ± 9", "unit": "thousand"}, {"measurement": "Monocytes/Macrophages in BAL, thousand", "setting": "[1]; 1 μg/kg", "result": "586 ± 144", "unit": "thousand"}, {"measurement": "Neutrophils in BAL, thousand", "setting": "[1]; 1 μg/kg", "result": "18 ± 10", "unit": "thousand"}, {"measurement": "Total number of cells in the lavages", "setting": "[1]; 1 μg/kg", "result": "1.32±0.23", "unit": "million"}, {"measurement": "Change in BAL neutrophils from NSS to OVA", "setting": "[2]; 1 ug/kg, ANOVA contrast vs PBS treatment", "result": "differed"}, {"measurement": "Composition of cells in the BAL of control animals challenged with NSS", "setting": "[2]; NSS aerosol, 1 or 10 ug/kg", "result": "did not significantly affect"}, {"measurement": "Total eosinophils in the BAL", "setting": "[2]; OVA aerosol challenge", "result": "did not change"}, {"measurement": "% eosinophils in the BAL", "setting": "[2]; OVA aerosol challenge, not statistically significant", "result": "tended to decrease"}, {"measurement": "Effect in a model of immunization with sheep red blood cells", "setting": "[3]", "result": "strong immunostimulatory effect"}]}]}
